Assay [1] addresses T1, Indoleamine 2,3-dioxygenase 1 (Homo sapiens, UniProt P14902). Kind of assay: Inhibition of recombinant full-length N-terminal His-tagged human IDO1 (1 to 403 residues) expressed in Escherichia coli BL21(DE3) cells.
In assay [2] the target is T1, Indoleamine 2,3-dioxygenase 1. Description: Inhibition of human […] by HTS assay.

The structures appear in SMILES notation.

T1 sequence (P14902 whole entry, the tested form may be a part): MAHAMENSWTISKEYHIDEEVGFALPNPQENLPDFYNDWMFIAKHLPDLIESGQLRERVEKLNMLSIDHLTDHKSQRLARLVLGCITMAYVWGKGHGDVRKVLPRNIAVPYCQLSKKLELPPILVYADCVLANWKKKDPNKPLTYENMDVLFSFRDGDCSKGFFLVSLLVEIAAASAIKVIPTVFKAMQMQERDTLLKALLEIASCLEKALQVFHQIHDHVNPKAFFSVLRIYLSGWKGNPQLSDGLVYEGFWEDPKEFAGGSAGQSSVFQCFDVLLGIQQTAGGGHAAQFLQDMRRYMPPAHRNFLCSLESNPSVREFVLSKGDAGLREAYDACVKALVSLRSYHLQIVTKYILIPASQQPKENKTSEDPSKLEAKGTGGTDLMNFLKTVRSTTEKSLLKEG

For `O=C(CSc1nnc2scc(-c3ccc(Br)cc3)n12)c1ccc(Br)cc1`, the half-maximal inhibitory concentration (IC50) in assay [1] is greater than 10000 nM.

`CCCCNC(=S)NCc1cnc2scc(C#CC3CC3)n12`: the IC50 in assay [1] is 502 nM.

In the case of `CCCS(=O)(=O)NCc1cnc2scc(-c3ccc(Br)cc3)n12`, the IC50 in assay [1] stood at 1070 nM.

For `CC(C)CSc1nnc2scc(-c3ccc(Cl)cc3)n12`, in assay [1], the IC50 amounted to 256 nM.

Turning to `N#Cc1ccc(NC(=O)NCc2cnc3scc(C#Cc4cccnc4)n23)cc1`, the IC50 in assay [1] is 3200 nM.

Consider `Cc1ccc(CS(=O)(=O)NCc2cnc3scc(-c4ccc(Br)cc4)n23)cc1`, for which, in assay [1], the 50% inhibitory concentration (IC50) was 855 nM.

For `N#Cc1ccc(NC(=S)NCc2cnc3scc(C#CC4CC4)n23)cc1`, the concentration for half-maximal inhibition (IC50) in assay [1] is 16.4 nM.

For `N#Cc1ccc(NC(=O)NCc2cnc3scc(C#Cc4ccc(Cl)s4)n23)cc1`, the IC50 in assay [1] stood at 823 nM.

Turning to `OC(c1ccccc1)c1cnc2scc(-c3ccc(Br)cc3)n12` (configuration not stated), in assay [1], the IC50 was 1090 nM.

In the case of `Brc1ccc(-c2csc3nccn23)cc1`, the half-maximal inhibitory concentration (IC50) in assay [1] amounted to 380 nM.

In the case of `O=C(NCc1cnc2scc(C#CC3CC3)n12)Nc1cccc(Cl)c1`, in assay [1], the IC50 was 42 nM.

As for `N#Cc1ccc(NC(=O)NCc2cnc3scc(C#Cc4ccsc4)n23)cc1`, the half-inhibitory concentration (IC50) in assay [1] stood at 73.9 nM.

Turning to `OC(c1cnc2scc(C#CC3CC3)n12)C1CCCCC1` (configuration not stated), in assay [1], the IC50 worked out at 7150 nM.

On to `N#Cc1ccc(NC(=O)NCc2cnc3scc(C#CC4CCCC4)n23)cc1`, for which the IC50 in assay [1] came to 418 nM.

For the molecule `Cc1sc2nccn2c1-c1ccc(Br)cc1`, the half-maximal inhibitory concentration (IC50) in assay [1] came out at 3110 nM.

With `O=C(CSc1nnc2scc(C3CCCCC3)n12)c1ccc(Br)cc1`, the IC50 in assay [1] was greater than 10000 nM.

With `O=S(=O)(Cc1cccc(Cl)c1)NCc1cnc2scc(-c3ccc(Br)cc3)n12`, in assay [1], the IC50 came out at 744 nM.

`S=C(NCc1cnc2scc(C#CC3CC3)n12)Nc1cccc(Cl)c1`: the half-inhibitory concentration (IC50) in assay [1] was 27.6 nM.

With `O=C(CSc1nnc2scc(-c3ccccc3)n12)Nc1ccc(Cl)cc1`, the concentration for half-maximal inhibition (IC50) in assay [2] worked out at 1190 nM.

With `N#Cc1ccc(NC(=O)NCc2cnc3scc(C#CC4CC4)n23)cc1`, in assay [1], the IC50 came to 102 nM.

In the case of `O=C(CSc1nnc2scc(-c3ccc(Cl)cc3)n12)c1ccc(Br)cc1`, the IC50 in assay [1] came out at 339 nM.

Regarding `OC(c1cnc2scc(-c3ccc(Br)cc3)n12)C1CCCCC1` (configuration not stated), in assay [1], the IC50 worked out at 1280 nM.

The values above are taken from ChEMBL document CHEMBL4376890, “Unique Sulfur-Aromatic Interactions Contribute to the Binding of Potent Imidazothiazole Indoleamine 2,3-Dioxygenase Inhibitors” (J Med Chem, 2020).
